Results published in US6525050B1, “(4-oxo-2-pyrimidinyl)thioalkyl compounds useful as AICARFT inhibitors” (Agouron Pharmaceuticals, Inc., priority 1998, dated 2003).

What follows are molecules tested against AICARFT (Homo sapiens, UniProt P31939) (assay: AICARFT activity, spectrophotometric enzyme assay (modified Black et al.)). Details: 50 mM Tris-HCl pH 7.5, 25° C., absorbance at 298 nm, substrates AICAR and FTHF, steady-state rate.
Format: biochemical
Protocol: Enzymatic activity was measured spectrophotometrically using a modified assay developed by Black et al. (“A Rapid Assay for 5-Amino-4-imidazolecarboxamide Ribotide Transformylase,” Anal. Biochiem. 90 (1978), 397-401). The reaction volume was 1 mL and contained 50 mM Tris-HCl pH 7.5, 25 mM KCl, 20 mM 2-mercaptoethanol, variable concentrations of test compound in 1% DMSO, […] (5-aminoimidazole-4-carboxamideribonucleotide), […] tetrathydrofolate (FTHF), and 0.015 mM enzyme. The reaction was enzyme-initiated and followed by monitoring the increase in absorbance at 298 nm at 25° C. (ξ298=19.7×10^3 cm^−1M^−1). AICARFT inhibition constants (Ki) were determined from the dependence of the steady-state catalytic rate upon compound and substrate concentration.

AICARFT, sequence (P31939 whole entry): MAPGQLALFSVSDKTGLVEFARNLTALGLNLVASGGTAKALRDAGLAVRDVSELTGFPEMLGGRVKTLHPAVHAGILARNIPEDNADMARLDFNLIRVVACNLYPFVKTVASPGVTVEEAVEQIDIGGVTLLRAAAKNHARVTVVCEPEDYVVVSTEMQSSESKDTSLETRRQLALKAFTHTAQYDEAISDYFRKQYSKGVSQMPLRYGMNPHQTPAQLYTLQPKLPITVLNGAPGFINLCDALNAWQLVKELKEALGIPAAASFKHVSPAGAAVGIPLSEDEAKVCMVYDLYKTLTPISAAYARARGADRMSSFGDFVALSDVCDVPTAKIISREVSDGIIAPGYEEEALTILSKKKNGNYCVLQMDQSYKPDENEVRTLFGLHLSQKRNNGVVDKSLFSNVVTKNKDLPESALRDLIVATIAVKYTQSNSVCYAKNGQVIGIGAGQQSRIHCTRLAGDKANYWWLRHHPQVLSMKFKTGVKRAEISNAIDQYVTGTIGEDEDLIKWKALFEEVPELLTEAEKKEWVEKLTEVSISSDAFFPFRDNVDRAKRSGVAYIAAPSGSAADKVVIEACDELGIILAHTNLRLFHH

**Q.** N#Cc1c(-c2ccc(-c3cccs3)s2)nc(SCc2ccc(NS(=O)(=O)c3ccc(F)cc3)cc2Cl)[nH]c1=O [Compound 21, N-(3-Chloro-4-[([5-cyano-6-(5-[2-thienyl]thien-2-yl)-4(3H)-oxopyrimidin-2-yl]thio)methyl]phenyl) 4-fluorobenzenesulfonamide] was tested. Which Ki did it give?
**A.** 29 nM

**Q.** COc1cc(CSc2nc(-c3ccc(-c4cccs4)s3)c(C#N)c(=O)[nH]2)ccc1NS(=O)(=O)c1ccc(F)cc1 [Compound 24] was tested. Which Ki did it give?
**A.** 1300 nM

**Q.** How did the Ki turn out when N#Cc1c(-c2ccc(-c3cccs3)s2)nc(SCc2ccc(NS(=O)(=O)c3ccc(F)cc3)cc2)[nH]c1=O [Compound 18, N-(4-[([5-Cyano-6-(5-[2-thienyl]thien-2-yl)-4(3H)-oxopyrimidin-2-yl]thio)methyl]phenyl) 4-fluorobenzenesulfonamide] was run?
**A.** 380 nM

**Q.** With Cc1cc(CSc2nc(-c3ccc(-c4cccs4)s3)c(C#N)c(=O)[nH]2)ccc1S(=O)(=O)Nc1ccc(F)cc1 [Compound 17, N-(4-Fluorophenyl) 4-[([5-cyano-6-(5-[2-thienyl]thien-2-yl)-4(3H)-oxopyrimidin-2-yl]thio)methyl]-2-methylbenzenesulfonamide] as the molecule, how does the Ki read?
**A.** 1000 nM

**Q.** With O=C(O)c1ccc(CCCCCSc2nc(-c3ccc(-c4ccccc4)cc3)cc(=O)[nH]2)s1 [Compound 5, 5-[5-([6-(4-Biphenylyl)-4(3H)-oxopyrimidin-2-yl]thio)pentyl]thiophene-2-carboxylic acid] as the molecule, how does the Ki read?
**A.** 270 nM

**Q.** With O=C(O)CCC(NC(=O)c1ccc(CCCSc2nc(-c3ccccc3)cc(=O)[nH]2)s1)C(=O)O (stereo not drawn) [Compound 13, N-(5-[3-([6Phenyl-4(3H)-oxopyrimidin-2-yl]thio)propyl]theno-2-yl)glutamic acid] as the molecule, how does the Ki read?
**A.** 5300 nM

**Q.** For O=C(O)c1ccc(CCCCCSc2nc(-c3ccc(-c4cccs4)s3)cc(=O)[nH]2)s1 [Compound 3, 5-[5-([6-(5-[2-Thienyl]thien-2-yl)-4(3H)-oxopyrimidin-2-yl]thio)pentyl]thiophene-2-carboxylic acid], which Ki is on record?
**A.** 280 nM

**Q.** O=C(O)c1ccc(CCCCCSc2nc(-c3cccc(-c4nn[nH]n4)c3)cc(=O)[nH]2)s1 [Compound 26, 5-[5-([6-(3-[1(H)-Tetrazol-5-yl]phenyl)-4(3H)-oxopyrimidin-2-yl]thio)pentyl]thiophene-2-carboxylic acid] was tested. Which Ki did it give?
**A.** 370 nM

**Q.** For N#Cc1c(-c2ccc(-c3cccs3)s2)nc(SCc2ccc(S(=O)(=O)Nc3ccc(F)cc3)cc2)[nH]c1=O [Compound 14, N-(4-Fluorophenyl) 4-[([5-cyano-6-(5-[2-thienyl]thien-2-yl)-4(3H)-oxopyrimidin-2-yl]thio)methyl]benzenesulfonamide], which Ki is on record?
**A.** 590 nM

**Q.** For O=C(O)c1ccc(CCCSc2nc(-c3ccccc3)cc(=O)[nH]2)s1 [Compound 2, 5-(3-[(6-Phenyl-4(3H)-oxopyrimidin-2-yl)thio]propyl)thiophene-2-carboxylic acid], which Ki is on record?
**A.** 7200 nM

**Q.** With N#Cc1c(-c2ccc(-c3cccs3)s2)nc(SCc2ccc(S(=O)(=O)NCCc3c[nH]c4ccccc34)cc2)[nH]c1=O [Compound 27, N-(2-[1(H)-indol-3-yl]-ethyl) 4-[([5-cyano-6-(5-[2-thienyl]thien-2-yl)-4(3H)-oxopyrimidin-2-yl]thio)methyl]benzenesulfonamide] as the molecule, how does the Ki read?
**A.** 83 nM

**Q.** How did the Ki turn out when N#Cc1c(-c2ccc(-c3cccs3)s2)nc(SCCCCCc2ccc(C(=O)NC(CCC(=O)O)C(=O)O)s2)[nH]c1=O (stereo not drawn) [Compound 10, N-(5-[5-([5-Cyano-6-(5-[2-thienyl]thien-2-yl)-4(3H)-oxopyrimidin-2-yl]thio)pentyl]theno-2-yl)glutamic acid] was run?
**A.** 4 nM

**Q.** With Cc1ccc2cc(NS(=O)(=O)c3ccc(CSc4nc(-c5ccc(-c6cccs6)s5)c(C#N)c(=O)[nH]4)cc3)ccc2n1 [Compound 16, N-(2-Methylquinolin-6-yl) 4-[([5-cyan-6-(5-[2-thienyl]thien-2yl)-4(3H)-oxopyrimidin-2-yl]thio)methyl]benzenesulfonamide] as the molecule, how does the Ki read?
**A.** 430 nM

**Q.** Which Ki does the source give for N#Cc1c(-c2ccc(-c3cccs3)s2)nc(SCCCCCc2ccc(C(=O)O)s2)[nH]c1=O [Compound 8, [5-([5-Cyano-6-(5-[2-thienyl]thien-2-yl)-4(3H)-oxopyrimidin-2-yl]thio)pentyl]thiopbene-2-carboxylic acid] here?
**A.** 40 nM

**Q.** With O=C(O)CCC(NC(=O)c1ccc(CCCCSc2nc(-c3ccccc3)cc(=O)[nH]2)s1)C(=O)O (stereo not drawn) [Compound 11, N-(5-[5-([6-Phenyl-4(3H)-oxopyrimidin-2-yl]thio)butyl]thio2-yl)glutamic acid] as the molecule, how does the Ki read?
**A.** 6800 nM

**Q.** N#Cc1c(-c2ccc(-c3cccs3)s2)nc(SCc2ccc(S(=O)(=O)Nc3ccc(F)cc3)cc2Cl)[nH]c1=O [Compound 19, N-(4-Fluorophenyl) 4-[([5-cyano-6-(5-[2-thienyl]thien-2-yl)-4(3H)-oxopyrimidin-2-yl]thio)methyl]-3-chlorobenzenesulfonamide] was tested. Which Ki did it give?
**A.** 400 nM

**Q.** With O=C(O)CCC(NC(=O)c1ccc(CCCCCSc2nc(-c3ccccc3)cc(=O)[nH]2)s1)C(=O)O (stereo not drawn) [Compound 9, N-(5-[5-([6-Phenyl-4(3H)-oxopyrimidin-2-yl]thio)pentyl]theno-2-yl)glutamic acid] as the molecule, how does the Ki read?
**A.** 460 nM

**Q.** Which Ki does the source give for O=C(O)CCC(NC(=O)c1ccc(CCSc2nc(-c3ccccc3)cc(=O)[nH]2)s1)C(=O)O (stereo not drawn) [Compound 12, N-(5-[2-([6-Phenyl-4(3H)-oxopyrimidin-2-yl]thio)ethyl]theno-2-yl)glutamic acid] here?
**A.** 8900 nM

**Q.** How did the Ki turn out when COc1cc(NS(=O)(=O)c2ccc(F)cc2)ccc1CSc1nc(-c2ccc(-c3cccs3)s2)c(C#N)c(=O)[nH]1 [Compound 23, N-(4-[([5-Cyano-6-(5-[2-thienyl]thien-2-yl)-4(3H)-oxopyrimidin-2-yl]thio)methyl]-3-methoxyphenyl) 4-fluorobenzenesulfonamide] was run?
**A.** 770 nM

**Q.** Which Ki does the source give for Cc1cc(CSc2nc(-c3ccc(-c4cccs4)s3)c(C#N)c(=O)[nH]2)ccc1NS(=O)(=O)c1ccc(F)cc1 [Compound 22, N-(4-[([5-Cyano-6-(5-[2-thienyl]thien-2-yl)4(3H)-oxopyrimidin-2-yl]thio)methyl]-2-methylphenyl) 4-fluorobenzenesulfonamide] here?
**A.** 1000 nM

**Q.** How did the Ki turn out when COC(=O)c1ccc(CCCCCSc2nc(-c3ccc(-c4ccccc4)cc3)cc(=O)[nH]2)s1 [Compound 4, Methyl 5-[5-([6-(4-biphenylyl)-4(3H)-oxopyrimidin-2-yl]thio)pentyl]-thiophene-2-carboxylate] was run?
**A.** 54700 nM

**Q.** For CN(c1ccc(F)cc1)S(=O)(=O)c1ccc(CSc2nc(-c3ccc(-c4cccs4)s3)c(C#N)c(=O)[nH]2)cc1 [Compound 15, N-(4-Fluorophenyl)-N-methyl 4-[([5cyano-6-(5-[2-thienyl]thien-2-yl)-4(3H)-oxopyrimidin-2-yl]thio)methyl]benzenesulfonamide], which Ki is on record?
**A.** 2100 nM

**Q.** Which Ki does the source give for O=C(O)c1ccc(CCCCCSc2nc(-c3ccccc3)cc(=O)[nH]2)s1 [Compound 1, 5-(5-[(6-Phenyl-4(3H)-oxopyrimidin-2-yl)thio]pentyl)thiophene2-carboxylic acid] here?
**A.** 3500 nM

**Q.** O=C(O)c1ccc(CCCCCSc2nc(-c3ccc(N4CCOCC4)cc3)cc(=O)[nH]2)s1 [Compound 7, 5-[5-([6-(4-Morpholinylphenyl)-4(3H)-oxopyrimidin-2-yl]thio)pentyl]-thiophene-2-carboxylic acid] was tested. Which Ki did it give?
**A.** 220 nM

**Q.** Which Ki does the source give for CN(c1ccc(CSc2nc(-c3ccc(-c4cccs4)s3)c(C#N)c(=O)[nH]2)cc1)S(=O)(=O)c1ccc(F)cc1 [Compound 20, N-(4-[([5Cyano-6(5-[2-thienyl]thien-2-yl)-4(3 H)-oxopyrimidin-2-yl]thio)methyl]phenyl)-N-methyl 4-fluorobenzenesulfonamide] here?
**A.** 1800 nM

**Q.** For N#Cc1c(-c2ccc(-c3cccs3)s2)nc(SCc2cccc(NS(=O)(=O)c3ccc(F)cc3)c2)[nH]c1=O [Compound 25, N(3-[([5-Cyano-6-(5-[2-thienyl]thien-2-yl)-4(3H)-oxopyrimidin-2-yl]thio)methyl]phenyl) 4-fluorobenzenesulfonamide], which Ki is on record?
**A.** 1400 nM

**Q.** How did the Ki turn out when O=C(O)c1ccc(CCCCCSc2nc(-c3ccc(Oc4ccccc4)cc3)cc(=O)[nH]2)s1 [Compound 6, 5-[5-([6-(4-Phenoxypheuyl)-4(3H)-oxopyrimidin-2-yl]thio)pentyl]thiophene-2-carboxylic acid] was run?
**A.** 430 nM
